For one test, the system named is Hep 3B tumor models. Kind of test: In vivo efficacy test, Hep3B subcutaneous xenograft in nude mice. On the set-up: species or system Nu/Nu nude mice. The conditions noted are these: for tumor inhibition rate: gavage, twice a day, Hep3B xenograft, day 16. How it is done:
Human hepatoma Hep3B cells and cell culture medium (EMEM) were purchased from ATCC. Antibiotics (penicillin, streptomycin) and Tryspin-EDTA were purchased from Gibco. Phosphate buffered saline (PBS) and fetal bovine serum (FBS) were purchased from Hyclone. Matrigel was purchased from Corning. Nu/Nu nude mice 6-8 weeks, female, purchased from Vitalriver.
Human hepatoma Hep3B cells were cultured in monolayer in vitro, and cultured in EMEM with 10% fetal bovine serum, 100 U/mL penicillin and 100 μg/mL streptomycin, 37° C., 5% CO2. Trypsin-EDTA was used twice a week for routine digestion and passage. When cell saturation reached 80%-90%, cells were harvested, counted, and seeded. 0.2 mL of 10×10^6 Hep3B cells were subcutaneously seeded on the right back of each nude mouse (PBS:Matrigel=1:1). Administration was started when the average tumor volume reached 128 mm^3.
The mice were administered by gavage, twice a day. Control group was given pure water. Three treatment groups were administered Compound 4, at the doses of 10 mg/kg, 30 mg/kg, and 60 mg/kg, respectively. Tumors were measured and weighed twice a week. By day 16, the average tumor volume in the control group had reached the humanitarian endpoint (2000 mm^3), and the experiment was terminated.
The data was processed by software such as Excel. […] The tumor inhibition effect was obvious in Hep 3B tumor models.

A further test concerns HuH-7 hepatoma cells. Kind of test: In vitro cell proliferation assay (CellTiter-Glo, CTG), HuH-7. The conditions noted are these: Homo sapiens, Huh-7, 96 h, HuH-7 cells. In kind it is cell-based. The protocol:
In Vitro Cell Proliferation Assay of FGFR4 (CellTiter-Glo Luminescent Cell Viability Assay, CTG Assay)
Hep 3B hepatoma cells were purchased from Cell Resource Center of Peking Union College, and HuH-7 hepatoma cells were purchased from Shanghai Biological Technology Co., Ltd. enzyme research. The cells were prepared at a concentration of 3×10^4/mL, which was then added with 100 μL to each well of a 96-well transparent flat-bottom black-walled plate to make 3000 cells per well. Incubate overnight at 37° C. in 5% CO2 incubator. Dilute a compound and add it to the wells having the cells, then add cell culture medium to 200 μL per well. Put in CO2 incubator for incubation. After 96 hours, 100 μL of culture medium was removed from each well, 100 μL of CTG was added, and the 96-well plate was placed on a shaker for 10 minutes, and placed in the shade at room temperature for 45 minutes. Data was read out by SoftMax Pro i3X Microplate Reader of MD, analyzed by the software GraphPad Prism 5.0, and S-shaped dose-response curve was drawn, then the EC50 values were calculated.

The subject of another test is Hep 3B hepatoma cells. The test can be described thus: In vitro cell proliferation assay (CellTiter-Glo, CTG), Hep 3B. Format: cell-based, human. The conditions noted are these: Homo sapiens, Hep3B, 96 h, Hep 3B cells. In a few lines:
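Hep 3B or HuH-7 cells seeded at 3000 per well and incubated overnight at 37° C, 5% CO2, then exposed to diluted compound for 96 h. Viability read by CellTiter-Glo luminescence; EC50 from sigmoidal dose-response curve.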

Another test deals with FGFR4 (Homo sapiens, UniProt P22455). Kind of test: In vitro biochemical kinase analysis of FGFR4 (HTRF KinEASE-TK). The conditions noted are these: HTRF kinase assay. In a few lines:
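HTRF KinEASE-TK format: FGFR4 was preincubated 10 min with compound, then TK-substrate-biotin and ATP were added for a 40 min reaction at room temperature. Detection used Sa-XL665 and TK-antibody-Cryptate for 1 h, with a 665/615 nm read. IC50 came from nonlinear fitting.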

Consider 2 compounds from US12344611B2, “Bridged cycloformylpyridine derivatives and uses thereof” (BroadenBio Co., Ltd., priority 2019, dated 2025).

SMILES strings stand for the structures.

FGFR4, sequence (P22455 22-802): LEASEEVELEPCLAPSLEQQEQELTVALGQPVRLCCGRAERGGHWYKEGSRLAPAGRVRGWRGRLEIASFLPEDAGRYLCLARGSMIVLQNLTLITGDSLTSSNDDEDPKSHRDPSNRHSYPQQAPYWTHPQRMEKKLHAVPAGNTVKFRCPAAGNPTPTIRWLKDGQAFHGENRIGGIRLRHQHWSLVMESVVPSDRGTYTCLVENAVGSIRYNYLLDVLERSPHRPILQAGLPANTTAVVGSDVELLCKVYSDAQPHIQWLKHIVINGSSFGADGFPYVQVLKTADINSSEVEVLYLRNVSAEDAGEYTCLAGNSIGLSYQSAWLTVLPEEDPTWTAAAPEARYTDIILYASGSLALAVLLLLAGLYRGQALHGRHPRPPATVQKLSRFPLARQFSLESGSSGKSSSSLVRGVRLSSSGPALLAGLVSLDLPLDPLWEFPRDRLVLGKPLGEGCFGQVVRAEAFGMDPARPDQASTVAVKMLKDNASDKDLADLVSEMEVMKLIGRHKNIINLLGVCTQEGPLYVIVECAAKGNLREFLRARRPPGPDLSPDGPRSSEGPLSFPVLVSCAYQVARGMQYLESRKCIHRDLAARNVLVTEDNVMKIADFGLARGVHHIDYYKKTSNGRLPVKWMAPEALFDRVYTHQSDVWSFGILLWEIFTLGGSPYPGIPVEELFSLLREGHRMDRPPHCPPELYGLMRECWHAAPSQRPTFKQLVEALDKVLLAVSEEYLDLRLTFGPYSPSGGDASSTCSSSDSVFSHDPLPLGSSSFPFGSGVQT

For `COCCNc1cc(NC(=O)N2c3nc(C=O)c(CN4CCN(C)CC4=O)cc3C3(F)CC2C3)ncc1C#N` [Compound 4, N-(5-cyano-4-((2-methoxyethyl)amino)pyridin-2-yl)-4-fluoro-7-formyl-6-((4-methyl-2-oxopiperazin-1-yl)methyl)-3,4-dihydro-2,4-methylene-1,8-naphthyridine-1(2H)-carboxamide], the results for the tumor inhibition rate in the test with Hep 3B tumor models (30 mg/kg) and in the test with Hep 3B tumor models (60 mg/kg) were 78% and 97%, respectively. The tumor inhibition effect result in the test with Hep 3B tumor models (Hep 3B tumor models, in words) is “obvious”. For the same compound, the EC50 was found to be 12 nM with HuH-7 hepatoma cells and 6.4 nM in the test with Hep 3B hepatoma cells. The IC50 against FGFR4 was 0.7 nM.
As for `COCCOCCNc1cc(NC(=O)N2c3nc(C=O)ccc3C3(OC)CC2C3)ncc1C#N` [Compound 22, N-(5-cyano-4-((2-(2-methoxyethoxy)ethyl)amino)pyridin-2-yl)-7-formyl-4-methoxy-3,4-dihydro-2,4-methylene-1,8-naphthyridine-1(2H)-carboxamide], the EC50 in the test on HuH-7 hepatoma cells and in the test on Hep 3B hepatoma cells was 125 nM in each case. This compound returned an IC50 at FGFR4 of 4.7 nM.
